Laboratory results published in US20240018123A1, “COMPOUND FOR INHIBITING OR DISINTEGRATING ANDROGEN RECEPTOR, AND PHARMACEUTICAL USE THEREOF” (KOREA RESEARCH INSTITUTE OF CHEMICAL TECHNOLOGY, priority 2020, published 2024).
Read-outs that look alike come from different tables or passages of the source.

Legend:
[1] = tested on: LNCaP cells; assay: Cytotoxicity assessment (Cell-titer-glo cell viability), LNCaP
Procedure: In order to evaluate the androgen receptor (AR) cytotoxicity of the compounds according to the present invention, the following experiment was conducted. Specifically, 1.5×10^3 (LNCaP) or 4×10^3 (VCaP, 22RV1), respectively, of LNCaP, VCaP, and 22RV1 cells were injected into each well of a 96-well plate. The next day, each well was treated with the compound at a final concentration of 3 nM, 10 nM, 30 nM, 100 nM, 300 nM, 1 μM, 3 μM, and 10 μM. […] After 6 days of treatment, Cell-titer-glo (promega) was treated and reacted for 10 minutes, and cell viability was measured with a multimode plate reader (PerkinElmer, Inc.), and the change was quantified compared to when DMSO was treated.

[2] = tested on: VCaP cells; assay: Cytotoxicity assessment (Cell-titer-glo cell viability), VCaP; details: read-out: VCaP (CC50); VCaP cells, 6 days of treatment, Cell-titer-glo, vs DMSO
[3] = biological target: T1, Androgen receptor (AR) (Homo sapiens, UniProt P10275, T878A); assay: Assessment of AR proteolytic activity (Western blotting of LNCap cell lysates); assay type: cell-based; details: 24 hours of treatment, Western blotting quantified with Image J
T1 construct: 5.5×10^5 LNCap cells were injected into each well of a 6-well plate; endogenous in cells; host or cells: LNCaP
T1 sequence (P10275 1-920 T878A): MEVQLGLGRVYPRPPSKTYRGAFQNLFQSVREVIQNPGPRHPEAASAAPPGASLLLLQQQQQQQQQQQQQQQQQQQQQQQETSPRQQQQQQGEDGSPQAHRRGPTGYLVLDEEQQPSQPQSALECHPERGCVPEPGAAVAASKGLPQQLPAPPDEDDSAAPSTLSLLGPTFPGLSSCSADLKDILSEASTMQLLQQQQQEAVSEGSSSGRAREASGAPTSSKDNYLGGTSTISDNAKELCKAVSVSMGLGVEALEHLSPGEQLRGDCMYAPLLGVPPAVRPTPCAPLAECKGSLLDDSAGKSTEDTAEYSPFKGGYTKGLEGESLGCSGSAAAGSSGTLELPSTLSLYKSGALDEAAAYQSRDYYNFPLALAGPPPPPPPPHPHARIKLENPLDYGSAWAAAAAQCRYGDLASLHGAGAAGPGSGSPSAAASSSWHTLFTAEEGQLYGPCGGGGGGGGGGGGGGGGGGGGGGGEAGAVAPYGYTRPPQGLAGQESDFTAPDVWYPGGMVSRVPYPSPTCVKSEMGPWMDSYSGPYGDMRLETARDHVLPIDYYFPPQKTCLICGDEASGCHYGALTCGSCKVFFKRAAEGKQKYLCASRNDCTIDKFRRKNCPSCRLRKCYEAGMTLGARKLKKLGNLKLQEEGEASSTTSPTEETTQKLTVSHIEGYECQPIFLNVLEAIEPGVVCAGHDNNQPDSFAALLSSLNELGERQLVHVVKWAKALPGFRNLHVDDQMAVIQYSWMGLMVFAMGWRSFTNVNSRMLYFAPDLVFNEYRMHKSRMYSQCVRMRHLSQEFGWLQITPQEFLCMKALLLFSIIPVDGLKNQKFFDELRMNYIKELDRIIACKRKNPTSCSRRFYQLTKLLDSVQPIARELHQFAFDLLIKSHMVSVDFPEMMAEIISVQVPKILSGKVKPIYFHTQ
Outline: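 LNCap cells seeded at 5.5×10^5 per well and treated with compound for 24 hours. Lysates prepared in RIPA buffer (pH 7.5, with protease inhibitors). AR protein levels assessed by Western blot with densitometric quantification.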

[4] = read-out: LNCAP (CC50), LNCaP cells, 6 days of treatment, Cell-titer-glo, vs DMSO

| SMILES | CC50 [1, 4] [µM] | CC50 [2] [µM] | Degradation (1 μM treated in LNCaP, % AR remaining) [3] [%] | remaining activity at 1 µM ([3]; read-out: Degradation (1 μM treated in LNCaP, % AR remaining)) [%] | CC50 ([1]; Homo sapiens, LNCaP, 144 h, read-out: LNCAP (CC50, μM)) [µM] |
| --- | --- | --- | --- | --- | --- |
| CC1(C)C(NC(=O)c2ccc(C#CC3CCN(CC4CCN(C(=O)C5CCN(c6ccc7nnn(C8CCC(=O)NC8=O)c(=O)c7c6)CC5)CC4)CC3)cc2)C(C)(C)C1Oc1ccc(C#N)c(Cl)c1 (centres unmarked) [Example 97, N-((1r,3r)-3-(3-chloro-4-cyanophenoxy)-2,2,4,4-tetramethylcyclobutyl)-4-((1-((1-(1-(3-(2,6-dioxopiperidin-3-yl)-4-oxo-3,4-dihydrobenzo[d][1,2,3]triazin-6-yl)piperidine-4-carbonyl)piperidin-4-yl)methyl)piperidin-4-yl)ethynyl)benzamide] | 0.0767 | 0.00208 |  |  |  |
| CC1(C)C(NC(=O)c2ccc(-n3cc(CC4CCN(c5ccc6nnn(C7CCC(=O)NC7=O)c(=O)c6c5)CC4)nn3)cc2)C(C)(C)C1Oc1ccc(C#N)c(Cl)c1 (centres unmarked) [Example 103, N-((1r,3r)-3-(3-chloro-4-cyanophenoxy)-2,2,4,4-tetramethylcyclobutyl)-4-(4-((1-(3-(2,6-dioxopiperidin-3-yl)-4-oxo-3,4-dihydrobenzo[d][1,2,3]triazin-6-yl)piperidin-4-yl)methyl)-1H-1,2,3-triazol-1-yl)benzamide] | 0.144 | 0.0123 |  |  |  |
| CC1(C)C(NC(=O)c2ccc(CCN3CC4CN(C(=O)C5CCN(c6ccc7nnn(C8CCC(=O)NC8=O)c(=O)c7c6)CC5)CC4C3)cc2)C(C)(C)C1Oc1ccc(C#N)c(Cl)c1 (centres unmarked) [Example 93, N-((1r,3r)-3-(3-chloro-4-cyanophenoxy)-2,2,4,4-tetramethylcyclobutyl)-4-(2-(5-(1-(3-(2,6-dioxopiperidin-3-yl)-4-oxo-3,4-dihydrobenzo[d][1,2,3]triazin-6-yl)piperidine-4-carbonyl)hexahydropyrrolo[3,4-c]pyrrol-2(1H)-yl)ethyl)benzamide] | 0.0515 | 0.0224 |  |  |  |
| CC1(C)C(NC(=O)c2ccc(CCN3CCN(CC4CCN(C(=O)CNc5ccc6nnn(C7CCC(=O)NC7=O)c(=O)c6c5)CC4)CC3)cc2)C(C)(C)C1Oc1ccc(C#N)c(Cl)c1 (centres unmarked) [Example 110, N-((1r,3r)-3-(3-chloro-4-cyanophenoxy)-2,2,4,4-tetramethylcyclobutyl)-4-(2-(4-((1-((3-(2,6-dioxopiperidin-3-yl)-4-oxo-3,4-dihydrobenzo[d][1,2,3]triazin-6-yl)glycyl)piperidin-4-yl)methyl)piperazin-1-yl)ethyl)benzamide] | 0.456 | 0.00365 |  |  |  |
| CC1(C)C(NC(=O)c2ccc(CCN3CCN(CC4CCN(c5ccc6nnn(C7CCC(=O)NC7=O)c(=O)c6c5)CC4)CC3)cc2)C(C)(C)C1Oc1ccc(C#N)c(Cl)c1 (centres unmarked) [Example 111, N-((1r,3r)-3-(3-chloro-4-cyanophenoxy)-2,2,4,4-tetramethylcyclobutyl)-4-(2-(4-((1-(3-(2,6-dioxopiperidin-3-yl)-4-oxo-3,4-dihydrobenzo[d][1,2,3]triazin-6-yl)piperidin-4-yl)methyl)piperazin-1-yl)ethyl)benzamide] | 0.0372 | 0.00229 |  |  |  |
| CC1(C)C(NC(=O)c2ccc(OCCOCCOCCOCCOCCOCCCCNC(=O)C3CCN(c4ccc5nnn(C6CCC(=O)NC6=O)c(=O)c5c4)CC3)cc2)C(C)(C)C1Oc1ccc(C#N)c(Cl)c1 (centres unmarked) [Example 15, N-(1-(4-(((1r,3r)-3-(3-chloro-4-cyanophenoxy)-2,2,4,4-tetramethylcyclobutyl)carbamoyl)phenoxy)-3,6,9,12,15-pentaoxanonadecan-19-yl)-1-(3-(2,6-dioxopiperidin-3-yl)-4-oxo-3,4-dihydrobenzo[d][1,2,3]triazin-6-yl)piperidine-4-carboxamide] | 1.31 |  | 13.6 |  |  |
| CC1(C)C(NC(=O)c2ccc(-n3cc(C4CCN(C(=O)CNc5ccc6nnn(C7CCC(=O)NC7=O)c(=O)c6c5)CC4)nn3)cc2)C(C)(C)C1Oc1ccc(C#N)c(Cl)c1 (centres unmarked) [Example 107, N-((1r,3r)-3-(3-chloro-4-cyanophenoxy)-2,2,4,4-tetramethylcyclobutyl)-4-(4-(1-((3-(2,6-dioxopiperidin-3-yl)-4-oxo-3,4-dihydrobenzo[d][1,2,3]triazin-6-yl)glycyl)piperidin-4-yl)-1H-1,2,3-triazol-1-yl)benzamide] | 0.0899 | 0.00359 |  |  |  |
| CC1(C)C(NC(=O)c2ccc(-c3cnn(C4CCN(CC5CCN(c6ccc7nnn(C8CCC(=O)NC8=O)c(=O)c7c6)CC5)CC4)c3)nc2)C(C)(C)C1Oc1ccc(C#N)c(Cl)c1 (centres unmarked) [Example 115, N-((1r,3r)-3-(3-chloro-4-cyanophenoxy)-2,2,4,4-tetramethylcyclobutyl)-6-(1-(1-((1-(3-(2,6-dioxopiperidin-3-yl)-4-oxo-3,4-dihydrobenzo[d][1,2,3]triazin-6-yl)piperidin-4-yl)methyl)piperidin-4-yl)-1H-pyrazol-4-yl)nicotinamide] | 0.182 | 0.038 |  |  |  |
| CC1(C)C(NC(=O)c2ccc(C#CCC3CCN(CC4CCN(C(=O)C5CN(c6ccc7nnn(C8CCC(=O)NC8=O)c(=O)c7c6)C5)CC4)CC3)cc2)C(C)(C)C1Oc1ccc(C#N)c(Cl)c1 (centres unmarked) [Example 117, N-((1r,3r)-3-(3-chloro-4-cyanophenoxy)-2,2,4,4-tetramethylcyclobutyl)-4-(3-(1-((1-(1-(3-(2,6-dioxopiperidin-3-yl)-4-oxo-3,4-dihydrobenzo[d][1,2,3]triazin-6-yl)azetidine-3-carbonyl)piperidin-4-yl)methyl)piperidin-4-yl)prop-1-yn-1-yl)benzamide] | 0.166 | 0.013 |  |  |  |
| CC1(C)[C@H](NC(=O)c2ccc(OCCOCCOCCOCCOCCOCCNc3cccc4nnn(C5CCC(=O)NC5=O)c(=O)c34)cc2)C(C)(C)[C@H]1Oc1ccc(C#N)c(Cl)c1 (some centres unmarked) [Example 1, N-((1r,3r)-3-(3-chloro-4-cyanophenoxy)-2,2,4,4-tetramethylcyclobutyl)-4-((17-((3-(2,6-dioxopiperidin-3-yl)-4-oxo-3,4-dihydrobenzo[d][1,2,3]triazin-5-yl)amino)-3,6,9,12,15-pentaoxaheptadecyl)oxy)benzamide] | 5.69 |  | 72 |  |  |
| CC1(C)C(NC(=O)c2ccc(CCN3CC4CN(C(=O)C5CN(c6ccc7nnn(C8CCC(=O)NC8=O)c(=O)c7c6)C5)CC4C3)cc2)C(C)(C)C1Oc1ccc(C#N)c(Cl)c1 (centres unmarked) [Example 94, N-((1r,3r)-3-(3-chloro-4-cyanophenoxy)-2,2,4,4-tetramethylcyclobutyl)-4-(2-(5-(1-(3-(2,6-dioxopiperidin-3-yl)-4-oxo-3,4-dihydrobenzo[d][1,2,3]triazin-6-yl)azetidine-3-carbonyl)hexahydropyrrolo[3,4-c]pyrrol-2(1H)-yl)ethyl)benzamide] | 0.108 | 0.00784 |  |  |  |
| CC1(C)C(NC(=O)c2ccc(OCCOCCOCCOCCOCCOCCCCNC(=O)C3CN(c4ccc5nnn(C6CCC(=O)NC6=O)c(=O)c5c4)C3)cc2)C(C)(C)C1Oc1ccc(C#N)c(Cl)c1 (centres unmarked) [Example 16, N-(1-(4-(((1r,3r)-3-(3-chloro-4-cyanophenoxy)-2,2,4,4-tetramethylcyclobutyl)carbamoyl)phenoxy)-3,6,9,12,15-pentaoxanonadecan-19-yl)-1-(3-(2,6-dioxopiperidin-3-yl)-4-oxo-3,4-dihydrobenzo[d][1,2,3]triazin-6-yl)azetidine-3-carboxamide] | 1.95 |  | 12.6 |  |  |
| CC1(C)[C@H](NC(=O)c2ccc(N3CCN(CC4CCN(C(=O)COc5ccc6nnn(C7CCC(=O)NC7=O)c(=O)c6c5)CC4)CC3)cc2)C(C)(C)[C@H]1Oc1ccc(C#N)c(Cl)c1 (some centres unmarked) [Example 13, N-((1r,3r)-3-(3-chloro-4-cyanophenoxy)-2,2,4,4-tetramethylcyclobutyl)-4-(4-((1-(2-((3-(2,6-dioxopiperidin-3-yl)-4-oxo-3,4-dihydrobenzo[d][1,2,3]triazin-6-yl)oxy)acetyl)piperidin-4-yl)methyl)piperazin-1-yl)benzamide] |  |  |  | 8.3 | 0.803 |
